Data taken from patent publication US9295630B2, “Vitamin C complexes” (CENTRE NATIONAL DE LA RECHERCHE SCIENTIFIQUE, priority 2012, dated 2016).
Read-outs that look alike come from different tables or passages of the source.

Legend:
Format in all cases: cell-based
[1] = system: neutral GAGs; assay: Expression of neutral GAGs in human skin explants (alcian blue/PAS staining); conditions: topical, D10, relative to control No. 0
Experimental: (§1) Explants of human skin with a diameter of about […], obtained from surgical waste from cosmetic surgery and more particularly from abdominoplasty of women about thirty years of age, are used. The human skin is kept alive in a usual nutrient medium at 37° C. in humid atmosphere, enriched with 5% CO2, for ten days.
(§2) The explants of human skin are treated using a gel according to the invention comprising the VitC-SQ complex or conjugate according to the invention obtained in example 1a formulated in squalene as described in example 3 to obtain compositions comprising 1 wt % and 3 wt % respectively, expressed as weight of vitamin C active ingredient relative to the total weight of the composition. To obtain values of 1% and 3% respectively, expressed as weight of vitamin C, the concentration of the VitC-SQ complex is adjusted accordingly.
(§3) These two active ingredients are used at a concentration of 1 wt % and 3 wt %, expressed as weight of vitamin C active ingredient relative to the total weight of the composition.
(§4) Each of the compositions tested is applied topically, at a rate of 2 mg per explant, on the explants of human skin using a spatula on day zero (DO), then at 1 day (D1), at 3 days (D3), at 6 days (D6) and finally at 8 days (D8).
(§5) On the tenth day, the explants treated with each of the compositions are taken and are submitted to the same conditions as the explants of control No. 0.
(§6) Neutral GAGs, reservoirs of the growth factors near the dermal-epidermal junction, and acid GAGs, essentially hyaluronic acid, are examined on paraffin sections after staining with alcian blue/PAS (Mowry staining)

[2] = system: type I collagen; assay: Expression of type I collagen in human skin explants (immunolabeling); conditions: gel at 3 wt % as vitamin C, topical, D10, relative to control No. 0
Experimental: (§7) For this assessment, only certain of the explants of human skin described above are used. More particularly, they are untreated explants (control No. 0) and explants treated with VitC-SQ according to the invention at 3 wt %, with free vitamin C at 3 wt % (control No. 1) and with VitC-palm at 3 wt % (control No. 2), expressed as weight of vitamin C active ingredient relative to the total weight of the composition.
(§8) The microscopic observations are carried out in light microscopy, using a Leica microscope, type DMLB, with x 40 objective. The images were recorded with an Olympus DP72 camera, using Olympus Cell^D acquisition and archiving software.
Type I collagen is labeled on frozen sections with a rabbit anti-human collagen I antibody (Monosan ref PS047, polyclonal), at 1/800th for 1 hour at room temperature with a biotin/streptavidin amplifier system, detected by fluorescence (FITC caltag SA 1001). The nuclei were counterstained with propidium iodide.

[3] = system: type III collagen; assay: Expression of type III collagen in human skin explants (immunolabeling); conditions: gel at 3 wt % as vitamin C, topical, D10, relative to control No. 0
Experimental: as §7, §8
Regarding the labeling of type III collagen, the latter is labeled on sections in paraffin (fixation with formol) with a goat anti-human collagen III polyclonal antibody (SBA ref: 1330-01), at 1/50th overnight at room temperature using a Vectastain RTU Universal VECTOR avidin/biotin amplifier system, detected in diaminobenzidine (DAB) with the nuclei counterstained with Masson's hemalum.

[4] = system: acid GAGs; assay: Expression of acid GAGs in human skin explants (alcian blue/PAS staining); conditions: topical, D10, relative to control No. 0
Experimental: as §1, §2, §3, §4, §5, §6

[5] = system: explants of human skin; assay: General morphology / acanthosis of human skin explants (Masson's trichrome staining); conditions: for dermal stimulation / epidermal stimulation: topical, D10, relative to control No. 0
Experimental: as §1, §2, §3, §4, §5
After 48 hours of fixation in ordinary Bouin, the samples are dehydrated and impregnated with paraffin using a Leica 1020 automatic dehydrator. Then they are made into a block according to procedure MO-H-153 using a Leica EG 1160 coating station.
5-μm sections are prepared using a Minot type microtome, Leica RM 2125, and are glued on superfrost silanized glass histology slides.
Microscopic observations are performed in light microscopy, using a Leica microscope of the Orthoplan type, with x 25 and x 40 objectives. The images are recorded with a Sony DXC 390P tri CCD camera and are stored using Leica IM1000 data archiving software.
Acanthosis of the skin, and more generally observation of the general morphology is carried out on sections in paraffin after staining with Masson's trichrome, Goldner's variant, according to procedure MO-H-157.

[6] = system: CCD34SK human fibroblasts; assay: Test of cellular viability (MTT assay); conditions: for IC50: 4 h incubation then 48 h, read-out: IC50 (loss of 50% in cellular viability)
Experimental: 10 000 cells of CCD34SK human fibroblasts per well were seeded in a 96-well plate.
The test products are added to the wells in different concentrations. After 4 h of incubation, the culture medium is replaced with new biological medium and the cells are incubated for 48h at 37° C. and 5% CO2.
Then, the culture medium is removed by inverting and 100 μL, of PBS/well with MTT at a concentration of 0.5 mg/ml is added. The plate is put back in the incubator for 2 h at 37° C. and 5% CO2. In order to dissolve the dark blue crystals of formazan that have formed, 100 μL of a solution of SDS (sodium dodecyl sulfate) is added to each well and then the plate is incubated again for 12 h at 37° C. and 5% CO2.
At the end of the 12 h, spectrophotometric measurements are carried out on an ELISA plate reader at a wavelength of 570 nm. The percentage viability of the cells in the presence of the test molecules is then calculated from the following formula: (mean OD of the treated cells—OD of control with medium only/mean OD of the control cells (100% viability)—OD of control with medium only)×100±standard deviation; or presented in the form of curves plotting the evolution of absorbance as a function of time.
The IC50 values (“inhibitory concentration 50%” or the concentration that inhibits growth of 50% of the cells) then correspond to a product concentration tested generating a loss of 50% in cellular viability (see Table below).

For `O=C1OC(C(O)CO)C(O)=C1O` (centres unmarked) [Free vitamin C, 5-(1,2-dihydroxy-ethyl)-3,4-dihydroxy-5H-furan-2-one], the “overexpression of neutral GAGs” value ([1]; gel at 1 wt % as vitamin C) was “No overexpression of neutral GAGs”, the “overexpression of neutral GAGs” value ([1]; gel at 3 wt % as vitamin C) was “No overexpression of neutral GAGs” and the “expression of type I collagen” value [2] was “No overexpression of type I collagen”. The “expression of type III collagen” value [3] was “No overexpression of type III collagen”, the “overexpression of epidermal acid GAGs” value ([4]; gel at 1 wt % as vitamin C) was “No overexpression of epidermal acid” and the “overexpression of epidermal acid GAGs” value ([4]; gel at 3 wt % as vitamin C) was “No overexpression of epidermal acid”. The “effect on skin explants (overall)” value ([5]; dose less than or equal to 3 wt % as vitamin C) was “no effect”, the dermal stimulation ([5]; gel at 1 wt % as vitamin C) was “No dermal stimulation” and the epidermal stimulation ([5]; gel at 1 wt % as vitamin C) was “No epidermal stimulation”. The dermal stimulation ([5]; gel at 3 wt % as vitamin C) was “Moderate dermal stimulation” and the epidermal stimulation ([5]; gel at 3 wt % as vitamin C) was “No epidermal stimulation”.

In the case of `CC(C)=CCCC(C)=CCCC(C)=CCCC=C(C)CCC=C(C)CCC(=O)OC[C@H](O)[C@H]1OC(=O)C(O)=C1O` [VitC-SQ, 6-O-[4,8,13,17,21-pentamethyl-docosa-4,8,12,16,20-pentaenoyl] ascorbic acid], the “overexpression of neutral GAGs” value ([1]; gel at 1 wt % as vitamin C) is reported as “Slight overexpression of neutral GAGs”, the “overexpression of neutral GAGs” value ([1]; gel at 3 wt % as vitamin C) is reported as “Definite overexpression of neutral GAGs” and the “expression of type I collagen” value [2] is reported as “Slight underexpression of type I collagen”. For the same compound, the “expression of type III collagen” value [3] was “Slight overexpression of type III collagen”, the “toxicity relative to VitC-palm” value [6] was “half as toxic as VitC-palm” and the IC50 ([6]; Fibroblast) was 600 µM. The “overexpression of epidermal acid GAGs” value ([4]; gel at 1 wt % as vitamin C) was “No overexpression of the epidermal acid GAGs”, the “overexpression of epidermal acid GAGs” value ([4]; gel at 3 wt % as vitamin C) was “No overexpression of epidermal acid” and the “dermal and epidermal stimulation compared with VitC-Palm” value ([5]; at equivalent dose of vitamin C) was “greater than VitC-Palm”. For the same compound, the dermal stimulation ([5]; gel at 1 wt % as vitamin C) was “Moderate dermal stimulation”, the epidermal stimulation ([5]; gel at 1 wt % as vitamin C) was “Slight epidermal stimulation” and the dermal stimulation ([5]; gel at 3 wt % as vitamin C) was “Fairly definite dermal stimulation”. The epidermal stimulation ([5]; gel at 3 wt % as vitamin C) was “Definite epidermal stimulation”.

`CCCCCCCCCCCCCCCC(=O)OC[C@H](O)[C@H]1OC(=O)C(O)=C1O` [VitC-palm, 6-ascorbyl palmitate] was tested, and the “overexpression of neutral GAGs” value ([1]; gel at 1 wt % as vitamin C) was “Slight overexpression of neutral GAGs”, the “overexpression of neutral GAGs” value ([1]; gel at 3 wt % as vitamin C) was “Very moderate overexpression of neutral” and the “expression of type I collagen” value [2] was “No overexpression of type I collagen”. The “expression of type III collagen” value [3] was “Very slight overexpression of type III”, the IC50 [6] was 250 µM and the “overexpression of epidermal acid GAGs” value ([4]; gel at 1 wt % as vitamin C) was “No overexpression of epidermal acid”. For the same compound, the “overexpression of epidermal acid GAGs” value ([4]; gel at 3 wt % as vitamin C) was “No overexpression of epidermal acid”, the dermal stimulation ([5]; gel at 1 wt % as vitamin C) was “No dermal stimulation” and the epidermal stimulation ([5]; gel at 1 wt % as vitamin C) was “No epidermal stimulation”. For the same compound, the dermal stimulation ([5]; gel at 3 wt % as vitamin C) was “Moderate dermal stimulation” and the epidermal stimulation ([5]; gel at 3 wt % as vitamin C) was “No epidermal stimulation”.
